From ChEMBL document CHEMBL1127360, “Antipodal alpha-N-(methyl through decyl)-N-normetazocines (5,9 alpha-dimethyl-2'-hydroxy-6,7-benzomorphans): in vitro and in vivo properties” (J Med Chem, 1994)
Activity calls are given as the source filed them. The calls are words filed in the database; no cut-off is given here.

What was measured:
[1] = tested on: Mus musculus; assay: In vivo antinociceptive activity was tested through hot plate (HP) and counting jumps or paw licks; type: functional, organism-based
[2] = tested on: Mus musculus; assay: In vivo antinociceptive activity through injecting 2 mg/kg ip phenylquinone, activity calculated by total number of abdominal-stretches per group counted over a 1 min period; Inactive; type: functional, organism-based; set-up: dose 2 mg/kg
[3] = tested on: Mus musculus; assay: (§1) In vivo antinociceptive activity was tested through tail flick (TF) with this compound in mouse; type: functional, organism-based
[4] = tested on: Mus musculus; assay: In vivo for its narcotic antagonistic activity of the antinociceptive effect in mouse; type: functional, organism-based
[5] = target: Mu-type opioid receptor (Rattus norvegicus, UniProt P33535); assay: Inhibition against mu receptor using [3H]DAMGO in homogenate of rat brain cerebellum; type: tissue-based
[6] = target: Glutamate NMDA receptor; assay: Inhibition using [3H]TCP in homogenate of rat brain; type: tissue-based
[7] = tested on: Cercopithecidae; assay: Ratio of potencies against Mu receptor of monkey to that of rat
[8] = target: Mu-type opioid receptor (Homo sapiens) (UniProt P35372); assay: Ratio of potencies against Mu receptor to that of kappa receptor of monkey; conditions: Cercopithecidae; target entry is the homologue from another species
[9] = target: T1, Glutamate NMDA receptor (Rattus norvegicus) (UniProt P35439+Q00959+Q00960+Q00961+Q62645+Q8VHN2+Q9R1M7); assay: Ratio of potencies against PCP receptor to that of Mu receptor of rat; type: protein-complex assay
[10] = organism: Cavia porcellus; assay: Ratio of potencies against PCP receptor to that of sigma receptor
[11] = organism: Cavia porcellus; assay: Ratio of potencies against sigma receptor to that of Mu receptor of rat
[12] = tested on: Mus musculus; assay: In vivo antinociceptive activity was tested through injecting 2 mg/kg ip phenylquinone, activity calculated by total number of abdominal-stretches; type: functional, Abdomen; conditions: route intraperitoneal
[13] = tested on: Mus musculus; assay: In vivo antinociceptive activity at 30 mg/kg was tested through injecting 2 mg/kg ip phenylquinone, activity calculated by total number of abdominal-stretches per group counted over a 1 min period; type: functional
[14] = target: Mu-type opioid receptor (Rattus norvegicus) (UniProt P33535); assay: Ratio of potencies of (+) and (-) enantiomers against Mu receptors in Rats
[15] = target: Mu-type opioid receptor (Homo sapiens) (UniProt P35372); assay: Ratio of potencies of (+) and (-) enantiomers against Mu receptors in monkeys; conditions: Cercopithecidae; target entry is the homologue from another species
[16] = target: T1, Glutamate NMDA receptor (Rattus norvegicus); assay: Ratio of potencies of (+) and (-) enantiomers against PCP in rats
[17] = target: Kappa-type opioid receptor (Homo sapiens) (UniProt P41145); assay: Ratio of potencies of (+) and (-) enantiomers against kappa receptors in monkeys; conditions: Cercopithecidae; target entry is the homologue from another species
[18] = tested on: Mus musculus; assay: In vivo antinociceptive activity through hot plate (HP) by placing mouse on hot plate, and calculating number of times it jumps or licks its paw in 5 seconds; type: functional
[19] = tested on: Mus musculus; assay: as §1; type: functional; set-up: unit not given beside the values
[20] = tested on: Mus musculus; assay: In vivo antinociceptive activity was tested through tail flick (TF) with this compound in mouse at 30 mg/kg concentration; type: functional
[21] = tested on: Mus musculus; assay: Compound was tested in vivo for its narcotic antagonistic activity of the antinociceptive effect in mouse; type: functional

Chain of Mu-type opioid receptor (P33535 whole entry): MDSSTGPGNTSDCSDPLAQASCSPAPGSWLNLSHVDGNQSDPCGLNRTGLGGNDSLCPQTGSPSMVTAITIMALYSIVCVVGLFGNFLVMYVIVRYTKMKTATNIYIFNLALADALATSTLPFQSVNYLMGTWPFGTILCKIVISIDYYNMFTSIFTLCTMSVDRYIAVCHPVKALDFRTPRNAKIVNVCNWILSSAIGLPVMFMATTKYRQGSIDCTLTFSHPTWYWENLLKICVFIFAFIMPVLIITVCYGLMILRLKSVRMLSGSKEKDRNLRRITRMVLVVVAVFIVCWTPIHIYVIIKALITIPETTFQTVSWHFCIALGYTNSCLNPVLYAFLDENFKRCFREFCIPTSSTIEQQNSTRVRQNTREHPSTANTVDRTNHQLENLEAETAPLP
Chain of Mu-type opioid receptor (Rattus norvegicus) (P33535 whole entry): as above
Chain of Kappa-type opioid receptor (Homo sapiens) (P41145 whole entry): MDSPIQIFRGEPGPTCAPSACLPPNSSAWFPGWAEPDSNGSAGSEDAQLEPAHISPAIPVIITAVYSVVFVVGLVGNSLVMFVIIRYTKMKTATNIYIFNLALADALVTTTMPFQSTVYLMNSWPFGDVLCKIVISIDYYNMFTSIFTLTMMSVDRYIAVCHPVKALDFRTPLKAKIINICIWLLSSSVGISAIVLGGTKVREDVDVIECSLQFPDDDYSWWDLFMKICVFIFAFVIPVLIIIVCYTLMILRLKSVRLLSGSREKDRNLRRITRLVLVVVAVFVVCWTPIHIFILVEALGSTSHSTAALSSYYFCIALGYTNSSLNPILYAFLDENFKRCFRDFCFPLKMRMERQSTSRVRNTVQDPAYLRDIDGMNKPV
Chain of Mu-type opioid receptor (Homo sapiens) (P35372 whole entry): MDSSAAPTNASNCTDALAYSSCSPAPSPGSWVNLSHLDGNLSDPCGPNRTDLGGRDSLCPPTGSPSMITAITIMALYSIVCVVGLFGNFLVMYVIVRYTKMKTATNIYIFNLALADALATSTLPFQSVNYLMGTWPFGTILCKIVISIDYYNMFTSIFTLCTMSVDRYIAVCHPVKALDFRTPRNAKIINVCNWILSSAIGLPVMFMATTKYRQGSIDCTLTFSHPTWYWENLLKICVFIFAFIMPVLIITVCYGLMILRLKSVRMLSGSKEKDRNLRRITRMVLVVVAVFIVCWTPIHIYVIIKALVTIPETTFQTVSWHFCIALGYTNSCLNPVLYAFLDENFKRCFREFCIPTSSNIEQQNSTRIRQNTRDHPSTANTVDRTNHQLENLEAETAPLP

Structure (SMILES) | Activity [1] | Activity [3] | Activity [4] | Ki [5] | Ki [6] | Ratio [7] | Ratio [8] | Ratio [9] | Ratio [10] | Ratio [11] | Activity [12] | Ratio [14] | Ratio [15] | Ratio [16] | Ratio [17] | Activity [18] | Activity [19] | further results
CCCCCCCCCCN1CC[C@]2(C)c3cc(O)ccc3CC1[C@H]2C | inactive | inactive | inactive | 4.62 µM | 4.19 µM | 0.2 | 3 | 0.9 | 61 | 0.02 |  |  |  |  |  |  |  | Activity [2]: inactive
CCN1CC[C@@]2(C)c3cc(O)ccc3CC1[C@H]2C | inactive | inactive | inactive | 10 µM | 0.13 µM |  |  |  |  |  | 33.5 |  |  |  |  |  |  | 
CCCCN1CC[C@@]2(C)c3cc(O)ccc3CC1[C@H]2C | inactive | inactive | inactive | 2.88 µM | 0.893 µM | 0.4 | 0.6 | 0.3 | 149 | 0.002 |  |  |  |  |  |  |  | Inhibition [13]: 43%
CCCCCCCCCCN1CC[C@]2(C)c3cc(O)ccc3CC1[C@@H]2C | inactive | inactive | inactive | 0.507 µM | 10 µM | 2 | 2.3 | 20 | 263 | 0.08 |  | 9.1 | 0.8 | 0.4 | 1 |  |  | Activity [2]: inactive
CCCCCN1CC[C@@]2(C)c3cc(O)ccc3CC1[C@H]2C |  |  | inactive | 1.74 µM | 1.7 µM |  |  |  |  |  | 1 |  |  |  |  | 38 | 20.4 | 
CCCCCCN1CC[C@]2(C)c3cc(O)ccc3CC1[C@@H]2C |  |  | inactive | 0.0047 µM | 3.35 µM | 8.3 | 1.1 | 712 | 84 | 8.5 | 0.13 | 169 | 8.2 | 2.2 | 53 | 2.4 | 1.1 | 
CCCCCCCN1CC[C@]2(C)c3cc(O)ccc3CC1[C@@H]2C |  |  | inactive | 0.0088 µM | 5.63 µM | 3.1 | 1.2 | 640 | 115 | 5.6 | 0.13 | 28 | 9.6 | 0.5 | 23 | 2.4 | 1.7 | 
CCCCCCCCN1CC[C@]2(C)c3cc(O)ccc3CC1[C@H]2C |  |  | inactive | 0.522 µM | 0.786 µM | 0.3 | 14.2 | 1.5 | 281 | 0.005 | 7.8 |  |  |  |  | 11.1 |  | inhibition in vivo at 30 mg/kg [20]: 14%
CCCN1CC[C@]2(C)c3cc(O)ccc3CC1[C@@H]2C | inactive | inactive |  | 0.0076 µM | 0.264 µM | 0.2 | 1.3 | 35 | 0.4 | 97 | 22 | 687 | 629 | 2.3 | 226 |  |  | Activity [21]: 0.4
CCCCCCN1CC[C@@]2(C)c3cc(O)ccc3CC1[C@H]2C | inactive |  | inactive | 0.795 µM | 7.3 µM | 0.4 | 7.1 | 9.2 | 3180 | 0.003 | 5.6 |  |  |  |  |  | 21.3 | 
CCCCCCCN1CC[C@]2(C)c3cc(O)ccc3CC1[C@H]2C |  |  | inactive | 0.243 µM | 2.57 µM | 1.1 | 2.8 | 11 | 1350 | 0.008 | 3.5 |  |  |  |  | 11.5 | 12.9 | 
CCCCCCCCCN1CC[C@]2(C)c3cc(O)ccc3CC1[C@H]2C | inactive | inactive | inactive | 1.38 µM | 4.15 µM | 0.1 | 18 | 3 | 346 | 0.009 |  |  |  |  |  |  |  | Activity [2]: inactive
CCCCCN1CC[C@]2(C)c3cc(O)ccc3CC1[C@@H]2C |  |  | inactive | 0.016 µM | 2.47 µM |  |  |  |  |  | 0.2 |  |  |  |  | 2.4 | 1.3 | 
C[C@H]1C2Cc3ccc(O)cc3[C@@]1(C)CCN2C |  |  | inactive | 0.011 µM | 1.19 µM | 0.4 | 4 | 108 | 0.07 | 1640 | 0.3 | 452 | 328 | 0.03 | 222 | 0.6 | 0.8 | 
CCCCCCCCN1CC[C@]2(C)c3cc(O)ccc3CC1[C@@H]2C |  |  | inactive | 0.03 µM | 7.97 µM | 2 | 1.3 | 266 | 228 | 1.2 | 0.5 | 17 | 2.7 | 0.1 | 29 | 5.4 | 10.3 | 
CCCCCCCCCN1CC[C@]2(C)c3cc(O)ccc3CC1[C@@H]2C | inactive | inactive | inactive | 0.151 µM | 6.17 µM | 1.2 | 3.9 | 41 | 193 | 0.2 |  | 9.1 | 0.7 | 0.7 | 3.2 |  |  | Activity [2]: inactive
